Experimental data: article PMC7178819, “6,7-Dimethoxy-2-phenethyl-1,2,3,4-tetrahydroisoquinoline amides and corresponding ester isosteres as multidrug resistance reversers” (Journal of Enzyme Inhibition and Medicinal Chemistry, 2020)

Experiments:
[1] = Apparent permeability (Papp) determination (BA/AB) in Caco-2 cell monolayer; format: in vitro ADME; details: human, Caco-2 monolayer
Procedure: Caco-2 cells were seeded onto a Millicell® assay system (Millipore), where a cell monolayer is set in between a filter cell and a receiver plate, at a density of 10 000 cells/well[46]. The culture medium was replaced every 48 h and the cells kept for 21 days in culture. The Trans Epithelial Electrical Resistance (TEER) of the monolayers was measured daily, before and after the experiment, using an epithelial volt-ohmmeter (Millicell®-ERS). Generally, TEER values greater than 1000 Ω for a 21 days culture, are considered optimal.
After 21 days of Caco-2 cell growth, the medium was removed from filter wells and from the receiver plate, which were filled with fresh HBSS buffer (Invitrogen). This procedure was repeated twice, and the plates were incubated at 37 °C for 30 min. After incubation time, the HBSS buffer was removed and drug solutions and reference compounds were added to the filter well at the concentration of 100 µM, while fresh HBSS was added to the receiver plate. The plates were incubated at 37 °C for 120 min. Afterwards, samples were removed from the apical (filter well) and basolateral (receiver plate) side of the monolayer to measure the permeability.
(§1) The interaction potency between the designed compounds and P-gp was evaluated by measuring the transport inhibition of the pro-fluorescent probe Calcein-AM, that is a P-gp substrate, in a cell line overexpressing P-gp (MDCK-MDR1)[47]. The P-gp interacting profile was further investigated with two other assays: the Apparent Permeability (Papp) determination (BA/AB) in Caco-2 cell monolayer[48]^,[49], and the ATP cell depletion in the MDCK-MDR1 cell line[50]. Taking into account the results of the combined tests, an interacting compound can be classified as substrate or inhibitor. Papp determination measures the ratio between two fluxes: from the basolateral to apical compartments (BA, representative of passive diffusion) and from the apical to basolateral compartments (AB, representative of active transport). […] In the same manner, if (BA/AB) >2, the compound should probably be classified as a substrate. […] The selectivity of ligands 1–26 was evaluated by detecting their activity towards the other ABC transporters MRP1 and BCRP, by measuring the inhibition of the efflux of Calcein-AM (i.e., also a MRP1 substrate) in cells overexpressing MRP1 (MDCK-MRP1 cells), and the inhibition of the efflux of the fluorescent probe Hoechst 33342 (i.e. a BCRP substrate) in cells overexpressing BCRP (MDCK-BCRP cells), respectively.

[2] = molecular target: T1, P-gp (Homo sapiens, UniProt P08183); test: Inhibition of Calcein-AM transport in MDCK-MDR1 cells; format: cell-based; details: Calcein-AM, MDCK-MDR1 cells; mean ± SEM of two experiments
T1 construct: expressed in transfected cells; host or cells: MDCK-MDR1 (Madin-Darby Canine Kidney cells, gift of Prof. P. Borst, NKI-AVL)
Procedure: These experiments were carried out as previously described by Teodori et al. with minor modifications. Each cell line (30 000 cells per well) was seeded into black CulturePlate 96/wells plate with 100 µL medium and allowed to become confluent overnight. 100 µL of test compounds were solubilised in culture medium and added to monolayers, with final concentrations ranging from 1 nM to 100 µM. 96/Wells plate was incubated for 30 min in a humidified atmosphere 5% CO2 at 37 °C. Calcein-AM was added in 100 µL of Phosphate Buffered Saline (PBS) to yield a final concentration of 2.5 µM and plate was incubated for 30 min in a humidified atmosphere 5% CO2 at 37 °C. Each well was washed 3 times with ice cold PBS. Saline buffer was added to each well and the plate was read with Victor3 (PerkinElmer) at excitation and emission wavelengths of 485 and 535 nm, respectively. In these experimental conditions, Calcein cell accumulation in the absence and in the presence of tested compounds was evaluated and fluorescence basal level was estimated with untreated cells. In treated wells the increase of fluorescence with respect to basal level was measured. EC50 values were determined by fitting the fluorescence increase percentage versus log[dose].
The interaction potency between the designed compounds and P-gp was evaluated by measuring the transport inhibition of the pro-fluorescent probe Calcein-AM, that is a P-gp substrate, in a cell line overexpressing P-gp (MDCK-MDR1)[47]. The P-gp interacting profile was further investigated with two other assays: the Apparent Permeability (Papp) determination (BA/AB) in Caco-2 cell monolayer[48]^,[49], and the ATP cell depletion in the MDCK-MDR1 cell line[50]. […] Papp determination measures the ratio between two fluxes: from the basolateral to apical compartments (BA, representative of passive diffusion) and from the apical to basolateral compartments (AB, representative of active transport). […] In the same manner, if (BA/AB) >2, the compound should probably be classified as a substrate.

[3] = Stability test in human plasma (LC-MS/MS); format: in vitro ADME; details: human plasma; for half-life at 1 µM: human, 37 °C
Procedure: Each sample was prepared adding 10 µL of working solution 1 to 100 µL of tested matrix (PBS or human plasma) in micro centrifuge tubes. The obtained solutions correspond to 1 µM of analyte.
After the incubation, the samples were added with 300 µL of ISTD solution and centrifuged (room temperature for 5 min at 10,000 rpm). The supernatants were transferred in auto sampler vials and dried under a gentle stream of nitrogen.
The dried samples were dissolved in 1.0 ml of 10 mM of formic acid in mQ water: acetonitrile 80:20 solution. The obtained sample solutions were analysed by LC-MS/MS methods described in Supplementary material.
For this purpose, a series of experiments were carried out, adding a known amount of analyte in both phosphate buffer solution (PBS) and in human plasma. The samples were analysed by LC-MS/MS method operating in Multiple Reaction Monitoring (MRM) mode[55].
The analyte concentration (1 µM) used during the stability tests is generally smaller than the corresponding Michaelis–Menten constant (KM); therefore, the enzymatic degradation rate is described by a first-order kinetic. Then, by plotting the natural logarithm of the quantitative data versus the incubation time, a linear function can be used and its slope represents the degradation rate (k).

[4] = molecular target: T1, P-gp; test: ATP cell depletion (ATPlite assay) in MDCK-MDR1 cells; format: cell-based; details: Yes/No
Procedure: The MDCK-MDR1 cells were seeded into 96-well microplate in 100 µL of complete medium at a density 20,000 cells per well. The plate was incubated overnight (O/N) in a humidified atmosphere 5% CO2 at 37 °C. The medium was removed and 100 µL of complete medium either alone or containing different concentrations (ranging from 1 to 100 µM) of test compounds was added. The plate was incubated for 2 h in a humidified 5% CO2 atmosphere at 37 °C. 50 µL of mammalian cell lysis solution was added to all wells and the plate shacked for five minutes in an orbital shaker. 50 µL of substrate solution was added to all wells and the plate shacked for five minutes in an orbital shaker. The plate was dark adapted for ten minutes and the luminescence was measured.
as §1

T1 sequence (P08183 whole entry): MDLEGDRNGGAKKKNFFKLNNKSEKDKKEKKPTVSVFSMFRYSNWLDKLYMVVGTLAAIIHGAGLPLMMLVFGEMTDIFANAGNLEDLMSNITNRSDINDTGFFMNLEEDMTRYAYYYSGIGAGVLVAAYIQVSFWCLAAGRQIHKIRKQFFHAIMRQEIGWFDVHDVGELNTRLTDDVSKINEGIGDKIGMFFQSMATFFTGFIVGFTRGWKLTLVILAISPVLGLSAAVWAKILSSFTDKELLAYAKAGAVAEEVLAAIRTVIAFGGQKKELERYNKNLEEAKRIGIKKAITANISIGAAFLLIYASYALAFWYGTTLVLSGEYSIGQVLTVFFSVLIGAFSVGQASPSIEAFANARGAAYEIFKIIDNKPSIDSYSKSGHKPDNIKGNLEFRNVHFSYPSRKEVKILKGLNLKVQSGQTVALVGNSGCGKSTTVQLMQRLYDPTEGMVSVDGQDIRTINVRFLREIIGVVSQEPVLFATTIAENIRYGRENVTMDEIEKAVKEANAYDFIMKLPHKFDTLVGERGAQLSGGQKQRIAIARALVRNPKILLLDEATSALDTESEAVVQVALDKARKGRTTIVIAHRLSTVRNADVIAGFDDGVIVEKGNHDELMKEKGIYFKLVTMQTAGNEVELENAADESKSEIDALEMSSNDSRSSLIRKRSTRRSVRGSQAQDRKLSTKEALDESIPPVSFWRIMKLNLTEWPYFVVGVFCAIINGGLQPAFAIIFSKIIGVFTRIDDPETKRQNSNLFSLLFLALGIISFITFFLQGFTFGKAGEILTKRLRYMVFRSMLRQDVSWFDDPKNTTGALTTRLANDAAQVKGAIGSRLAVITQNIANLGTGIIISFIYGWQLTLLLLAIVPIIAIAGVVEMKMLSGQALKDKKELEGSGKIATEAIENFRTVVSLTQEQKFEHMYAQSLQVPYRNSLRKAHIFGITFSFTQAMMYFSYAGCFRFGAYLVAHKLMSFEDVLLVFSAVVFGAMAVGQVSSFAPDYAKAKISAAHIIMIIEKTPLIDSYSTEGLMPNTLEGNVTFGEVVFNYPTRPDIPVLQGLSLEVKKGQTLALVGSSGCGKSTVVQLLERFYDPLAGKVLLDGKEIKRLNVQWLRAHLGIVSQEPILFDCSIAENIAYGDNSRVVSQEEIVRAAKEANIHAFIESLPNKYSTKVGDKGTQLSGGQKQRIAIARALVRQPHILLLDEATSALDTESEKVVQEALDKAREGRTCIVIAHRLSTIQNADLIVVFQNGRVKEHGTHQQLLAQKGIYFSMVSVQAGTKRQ

Structure (SMILES)	efflux ratio at 120 min, 100 µM [1]	EC50 [2] [nM]	half-life at 1 µM [3] [min]	ATP cell depletion [4]	t1/2 ([3]; reference compound for enzymatic activity of the batch) [h]
COc1ccc2nccc(C(=O)Nc3ccc(CCN4CCc5cc(OC)c(OC)cc5C4)cc3)c2c1 [Compound 13, N-(4–(2-(6,7-dimethoxy-3,4-dihydroisoquinolin-2(1H)-yl)ethyl)phenyl)-6-methoxyquinoline-4-carboxamide]	6.5	660 ± 130	≥ 240	No	–
COc1cc2c(cc1OC)CN(CCc1ccc(NC(=O)c3cccnc3)cc1)CC2 [Compound 9, N-(4–(2-(6,7-dimethoxy-3,4-dihydroisoquinolin-2(1H)-yl)ethyl)phenyl)nicotinamide]	7.3	6400 ± 1260	≥ 240	No	–
COc1ccc2nccc(C(=O)Oc3ccc(CCN4CCc5cc(OC)c(OC)cc5C4)cc3)c2c1 [Compound 26, 4–(2-(6,7-Dimethoxy-3,4-dihydroisoquinolin-2(1H)-yl)ethyl)phenyl 6-methoxyquinoline-4-carboxylate]	8.7	1400 ± 260	124 ± 27	No	–
COc1ccc(C(=O)Nc2ccc(CCN3CCc4cc(OC)c(OC)cc4C3)cc2)cn1 [Compound 10, N-(4–(2-(6,7-dimethoxy-3,4-dihydroisoquinolin-2(1H)-yl)ethyl)phenyl)-6-methoxynicotinamide]	7.5	2300 ± 440	≥ 240	No	–
COc1cc2c(cc1OC)CN(CCc1ccc(NC(=O)c3cccc4ccccc34)cc1)CC2 [Compound 6, N-(4–(2-(6,7-dimethoxy-3,4-dihydroisoquinolin-2(1H)-yl)ethyl)phenyl)-1-naphthamide]	3.6	670 ± 120	≥ 240	No	–
COc1cc2c(cc1OC)CN(CCc1ccc(NC(=O)c3cnccn3)cc1)CC2 [Compound 11, N-(4–(2-(6,7-dimethoxy-3,4-dihydroisoquinolin-2(1H)-yl)ethyl)phenyl)pyrazine-2-carboxamide]	4.9	1900 ± 320	≥ 240	No	–
CCOC(=O)C(C)c1cccc(C(=O)c2ccccc2)c1 (stereo not drawn) [KEE, Ketoprofen ethyl ester, reference compound]	–	–	–	–	< 2
COc1cc2c(cc1OC)CN(CCc1ccc(OC(=O)c3cccnc3)cc1)CC2 [Compound 22, 4–(2-(6,7-Dimethoxy-3,4-dihydroisoquinolin-2(1H)-yl)ethyl)phenyl nicotinate]	5	29400 ± 4980	≥ 240	No	–

The remaining lines, values ahead:

efflux ratio at 120 min, 100 µM [1]	EC50 [2] [nM]	half-life at 1 µM [3] [min]	ATP cell depletion [4]	t1/2 ([3]; reference compound for enzymatic activity of the batch) [h]	Structure (SMILES)
6.2	150 ± 30	≥ 240	No	–	COc1cc2c(cc1OC)CN(CCc1ccc(OC(=O)c3c(OC)cccc3OC)cc1)CC2 [Compound 17, 4–(2-(6,7-Dimethoxy-3,4-dihydroisoquinolin-2(1H)-yl)ethyl)phenyl 2,6-dimethoxybenzoate]
5.6	9240 ± 1810	≥ 240	No	–	COc1ccc(C(=O)Oc2ccc(CCN3CCc4cc(OC)c(OC)cc4C3)cc2)cn1 [Compound 23, 4–(2-(6,7-Dimethoxy-3,4-dihydroisoquinolin-2(1H)-yl)ethyl)phenyl 6-methoxynicotinate]
–	–	–	Yes^g	–	COc1cc2c(cc1OC)CN(CCc1ccc(NC(=O)c3cccc4c(=O)c5cccc(OC)c5[nH]c34)cc1)CC2 [elacridar, reference compound]
5.5	7200 ± 1390	≥ 240	No	–	COc1cc2c(cc1OC)CN(CCc1ccc(NC(=O)c3c(OC)cccc3OC)cc1)CC2 [Compound 4, N-(4–(2-(6,7-dimethoxy-3,4-dihydroisoquinolin-2(1H)-yl)ethyl)phenyl)-2,6-dimethoxybenzamide]
4.9	1900 ± 320	42 ± 20	No	–	COc1cc2c(cc1OC)CN(CCc1ccc(OC(=O)c3cnccn3)cc1)CC2 [Compound 24, 4–(2-(6,7-Dimethoxy-3,4-dihydroisoquinolin-2(1H)-yl)ethyl)phenyl pyrazine-2-carboxylate]
11.8	120 ± 22	≥ 240	No	–	COc1cc2c(cc1OC)CN(CCc1ccc(NC(=O)c3c(OC)ccc4ccccc34)cc1)CC2 [Compound 7, N-(4–(2-(6,7-dimethoxy-3,4-dihydroisoquinolin-2(1H)-yl)ethyl)phenyl)-2-methoxy-1-naphthamide]
5.9	440 ± 82	≥ 240	No	–	COc1cc2c(cc1OC)CN(CCc1ccc(NC(=O)c3ccccc3OC)cc1)CC2 [Compound 2, N-(4–(2-(6,7-dimethoxy-3,4-dihydroisoquinolin-2(1H)-yl)ethyl)phenyl)-2-methoxybenzamide]
